System: midbrain explants
Experiment: Midbrain explant cultures, TH+ cell numbers
Assay type: cell-based, rat
Settings: without exogenous UCN
Experimental: Midbrain explants were dissected from E13.5 embryos by the method known by a person skilled in the art, for example as the protocol described by Baizabal and Covarrubias (2009) and performed with some modifications.
The dorsal midline of the explants was cut and the tissue was placed on porous (0.4 μm) transparent membrane inserts (25-mm in diameter, Nunc, Roskilde, Denmark) with the ventricular surface facing up. Inserts were then placed into six-well culture plates. Each well contained 1.5 mL of MEM medium supplemented with 10% FBS, 100 U/mL penicillin, and 100 μg/mL streptomycin. Explants were incubated at 37° C. with 5% CO2 for 4 hours, after which the explants were incubated in a serum-free DMEM/F12/N2 medium with or without UCN for 3 days. Midbrain explants were then fixed with 4% paraformaldehyde and immuno-histochemical analysis was performed.

[1] = CP-376395 in combination with astressin 2B

Molecule | TH+ cell numbers in the VM of midbrain explants (astressin) | TH+ cell numbers in the VM of midbrain explants [1]
astressin | reduce | 
CCC(CC)Nc1cc(C)nc(Oc2c(C)cc(C)cc2C)c1C [CP-376395] |  | reduce
astressin 2B |  | reduce
